Earlier results in patent publication US9452178B1, “Acne formulations, treatments, and pressure sensitive patches for delivery of acne formulations” (SatisPharma, LLC, priority 2014, dated 2016).

Details: complex with polyvinylpyrrolidone; publication by Rhein et al

O=C(O)c1ccccc1O [salicylic acid]
permeation through the epidermis: prevents its permeation through the epidermis
